Test results: patent US20210337847A1, “Mint Flavor Compositions” (The Procter & Gamble Company, priority 2020, published 2021)

How the values were obtained:
[1] = Expert sensory testing of racemic menthol versus (−)-menthol in a toothpaste formulation (CREST Cavity) with a standard spearmint flavor; assay type: in vivo
Description: In separate, unpublished internal experiments, perceptual experiences of racemic menthol are quantified via expert sensory testing. The use of a standard spearmint flavor (minimizing extra menthol contribution) compared racemic menthol to (−)-menthol in a toothpaste formulation (CREST Cavity). There are several sensory observations taken from these experiments. […] These aromatic notes appear during brushing and disappear after 5-10 minutes post expectoration and are more pronounced as concentrations increase.

[2] = Comparison of cooling attributes of (−)-menthol and racemic menthol in a toothpaste (CREST Cavity formulation); assay type: in vivo; details: for Potency compared to L-Menthol / Time Point at Maximum Cooling / Maximum Cooling (0-60 scale) / Maximum Longevity: CREST Cavity formulation; for Maximum Cooling (0-60 scale): 60 = greatest amount of cooling, 0 = least; for Maximum Longevity: longevity of cooling; for EC 50: concentration of coolant giving 50% of its maximal cooling
Description: The following data helps support the use of racemic menthol to reduce costs of mint flavor compositions herein described. From internal unpublished research, Table B compares replacing (−)-menthol with a racemic menthol in a 1:1 in a toothpaste formulation. Such a direct replacement is not preferred given the reduced cooling profile and olfactory differences; however, a portion of L-menthol is preferably replaced by racemic-menthol to gain cost efficiency while minimizing impact to the overall mint flavor profiles.
Table B is a comparison of attributes between (-)-menthol and racemic menthol in a toothpaste context (using CREST Cavity formulation).
This value represents the concentration of a coolant where 50% of its maximal cooling is observed.

Row | SMILES | Less potent than (−)-menthol for cooling [1] | Potency compared to L-Menthol [2] | Time Point at Maximum Cooling [2] | Maximum Cooling (0-60 scale) [2] | Maximum Longevity [2] | EC 50 [2]
1 | CC1CCC(C(C)C)C(O)C1 (racemic) [Racemic Menthol, racemic menthol] | 25-30% | ~0.65-0.7x | ~1 min | 35 | Up to 20 minutes | 1,250 to 1,500 parts per million
2 | CC1CCC(C(C)C)C(O)C1 (single isomer, unassigned; (-)) [(−)-Menthol, (−)-menthol] | – | 1x | ~5 min | 40 | Up to 25 minutes | 1,750 to 2,250 parts per million
